Test system: AMPK
Test: AMPK phosphorylation (Thr172) western blot in C2C12 myocytes
Type: cell-based, mouse
Description: C2C12 skeletal myoblast cell line was purchased from the Food Industry Research and Development Institute (Hsinchu, Taiwan). The C2C12 cell line was a cell line obtained from culturing the leg skeletal muscle of adult C3H mice in a cell incubator under […], 5% CO2, and 37° C. The cells were cultured in a DMEM medium (Gibco/Invitrogen, Carlsbad, Calif.) containing 4.5 mg/mL glucose, 10% fetal bovine serum (FBS; Gibco/Invitrogen, Carlsbad, Calif.), and an antibiotic solution (with final concentrations of penicillin=100 IU/mL and streptomycin=100 μg/mL). When the C2C12 myoblast cells have proliferated to cover seven-tenths of the area in the petri dish, the fetal bovine serum was replaced by 2% horse serum (Gibco/Invitrogen, Carlsbad, Calif.) so as to induce the C2C12 myoblast cells to become the multi-nuclei myocytes. The C2C12 myoblast cells differentiated into myocytes in 4 days, and the culture medium of the cells was replaced with no-serum DMEM 24 hours before the experiments so as to reduce metabolism of the cells. The C2C12 myocytes were treated respectively with 1 μM, 3 μM and 10 μM N-allylsecoboldine for 5 and 15 minutes. Then the C2C12 myocytes were rinsed with PBS buffer solution, and RIPA buffer solution containing protease inhibitors (20 mM Tris-HCl (pH 7.4), 100 mM NaCl, 1 mM EDTA, 1 mM EGTA, 0.1% SDS, 0.5% sodium deoxycholate, 1% NP-40, and 100× protease inhibitor cocktail) was added into the cells. The cells were collected and centrifuged on ice. Then, the concentrations of the supernatant samples were adjusted to be the same. The supernatant samples were put through vertical electrophoresis isolation with 8% SDS-PAGE, and the isolated proteins were transferred onto a PVDF blotting membrane. After blotting was completed, the PVDF blotting membrane was removed and blocked for 1 hour under room temperature with a blocking buffer of TBST (Tris-buffered saline with Tween-20) with 5% non-fat milk. Then, the PVDF blotting membrane was placed into a 5% BSA and TBST solution containing the primary monoclonal antibodies Phospho-AMPKα (Thr172) (Cell Signaling) (1:1000) and AMPKα (Thr172) (Cell Signaling) (1:1000), respectively, and the primary immunoblotting reaction was performed under 4° C. Then, the PVDF blotting membrane was rinsed 3 times with TBST, and a TBST solution containing the secondary antibody goat anti-rabbit IgG (Perkin Elmer) (1:10000) was added to perform the secondary reaction for one hour under room temperature. Finally, the membrane was rinsed 3 times with TBST before ECL (enhanced chemiluminescence) was added to present color.

SMILES: C=CCN(C)CCc1cc(O)c(OC)c2c1ccc1cc(O)c(OC)cc12 [N-allylsecoboldine]
- AMPK phosphorylation, times of that in the control cells (3 μM, 5 minutes): 2.34 times
- AMPK phosphorylation, times of that in the control cells (3 μM, 15 minutes): 1.38 times
- AMPK phosphorylation, times of that in the control cells (10 μM, 5 minutes): 2.51 times
- AMPK phosphorylation, times of that in the control cells (10 μM, 15 minutes): 2.79 times
- effect in AMPK activation (in words) (C2C12 cells, overall conclusion): excellent effect in AMPK activation

From patent publication US20150342908A1, “SECOAPORPHINE ALKALOID DERIVATIVE FOR ACTIVATING AMP-DEPENDENT PROTEIN KINASE” (ZIH YUAN TANG Biotechnology Co., Ltd, priority 2014, published 2015)
